{
  "source": "patent US20220288207A1",
  "about": "“PHOTO INDUCED CONTROL OF PROTEIN DESTRUCTION” (Beth Israel Deaconess Medical Center, Inc., priority 2019, published 2022)",
  "key": {"HEK293FT cells": {"test_system": "HEK293FT cells", "assay": "CCK-8 cell viability assay, HEK293FT cells", "assay_type": "cell-based, Human", "method": "(§1) Human embryonic kidney 293T (HEK293T) cells and HEK293FT were maintained in Dulbecco's Modified Eagle's Medium (DMEM) containing 10% fetal bovine serum (FBS), 100 Units of penicillin and […] streptomycin. MM.1S, MT2, C4-2, NCI-H2228 and NCI-H3122 cells were cultured in RPMI1640 containing 10% fetal bovine serum (FBS), 100 Units of penicillin and 100 μg/ml streptomycin. 293FT^CRBN+/+, 293FT^CRBN+/+ , MM.1S^CRBN+/+ and MM.1S^CRBN−/− cells were provided Dr. William G. Kaelin (Dana-Farber Cancer Institute). For UVA irradiation, cells were pretreated with opto-PROTACs for 2-4 hours, and then subjected to UVA irradiation for indicated durations.\n(§2) Cell in 96-well plates were incubated with 10 ul/well of CCK-8 solution and incubated for 2 hours, followed by the measurement of optical density using a microplate reader with a 450 nm filter (O.D. 450)."}, "C4-2 cells": {"test_system": "C4-2 cells", "assay": "CCK-8 cell viability assay, C4-2 cells", "assay_type": "cell-based", "method": "as §1, §2"}, "BRD3/4": {"test_system": "BRD3/4", "assay": "BRD3/4 degradation, immunoblot of 293FT cells", "assay_type": "cell-based, Human", "method": "as §1\n(§3) Cells were lysed in EBC lysis buffer (50 mM Tris pH 7.5, 120 mM NaCl, 0.5% NP-40), supplemented with protease inhibitors (cOmplete Mini, Roche) and phosphatase inhibitors (phosphatase inhibitor cocktail set I and II, Calbiochem). The protein concentrations of the lysates were measured using the Bio-Rad protein assay reagent on a Beckman Coulter DU-800 spectrophotometer. The lysates were then resolved by sodium dodecylsulfate-polyacrylamide gel ectrophoresis (SDS-PAGE) and immunoblotted with indicated antibodies. For immunoprecipitation, 1 mg lysates were incubated with the appropriate sepharose beads for 4 h at 4° C. Immuno-complexes were washed four times with NETN lysis buffer (20 mM Tris, pH 8.0, 100 mM NaCl, 1 mM EDTA and 0.5% NP-40) before being resolved by SDS-PAGE and immunoblotted with indicated antibodies."}, "BRD2 and BRD3": {"test_system": "BRD2 and BRD3", "assay": "In vivo ubiquitination assay of BRD2 and BRD3 by CRBN in HEK293T cells (Ni-NTA pull down)", "assay_type": "cell-based, Human", "method": "(§4) Denatured in vivo ubiquitination assays were performed as described in H. Inuzuka et al., Cell 150 (2012): 179, hereby incorporated by reference in its entirety and specifically in relation to ubiquitination assays. Briefly, HEK293T cells were transfected with Flag-CRBN, His-ubiquitin and HA-IKZF1 or GFP-BRD2 or GFP-BRD3. 24 hours after transfection, pomalidomide, opto-pomalidomide, dBET1 or opto-dBET1 were added to the cell culture together with 10 μM MG132 for 12 hours and cells were harvested in denatured buffer A (6 M guanidine-HCl, pH 8.0, 0.1 M Na2HPO4/NaH2PO4, 10 mM imidazole). After sonication, the ubiquitinated proteins were purified by incubation with Ni-NTA matrices for 3 hours at room temperature. The pull-down products were washed sequentially twice in buffer A, twice in buffer ANTI mixture (buffer A: buffer TI=1:3) and once in buffer TI (25 mM Tris-HCl, pH 6.8, 20 mM imidazole). The poly-ubiquitinated proteins were separated by SDS-PAGE for immunoblot analysis."}, "NCI-H2228 cells": {"test_system": "NCI-H2228 cells", "assay": "CCK-8 cell viability assay, NCI-H2228 cells", "assay_type": "cell-based", "method": "as §1, §2"}, "NCI-H3122 cells": {"test_system": "NCI-H3122 cells", "assay": "CCK-8 cell viability assay, NCI-H3122 cells", "assay_type": "cell-based", "method": "as §1, §2"}, "[1]": {"assay": "Uncaging (photolysis) by UVA irradiation in vitro, UV-VIS absorption / UPLC-MS analysis", "assay_type": "physicochemical", "conditions": "1 mM, UVA 365 nm, time course", "method": "HPLC spectra were acquired using an Agilent 1200 Series system with DAD detector for all the intermediates and Opto-PROTACs below. Chromatography was performed on a 2.1×150 mm Zorbax 300SB-C18 5 μm column with water containing 0.1% formic acid as solvent A and acetonitrile containing 0.1% formic acid as solvent B at a flow rate of 0.4 ml/min. The gradient program was as follows: 1% B (0-1 min), 1-99% B (1-4 min), and 99% B (4-8 min). High-resolution mass spectra (FIRMS) data were acquired in positive ion mode using an Agilent G1969A API-TOF with an electrospray ionization (ESI) source. Nuclear Magnetic Resonance (NMR) spectra were acquired on a Bruker DRX-600 spectrometer with 600 MHz for proton (^1H NMR) and 151 MHz for carbon (^13C NMR); chemical shifts are reported in (δ). Preparative HPLC was performed on Agilent Prep 1200 series with UV detector set to 254 nm. Samples were injected onto a Phenomenex Luna 250×30 mm, 5 μm, C18 column at room temperature. The flow rate was 40 ml/min. A linear gradient was used with 10% of acetonitrile (A) in H2O (with 0.1% TFA) (B) to 100% of acetonitrile (A). HPLC was used to establish the purity of target compounds. All final compounds had >95% purity using the HPLC methods described above.\n(§5) UV-Vis spectrometry was performed on a NanoDrop-2000 UV-Visible Spectrophotometer. Pomalidomide, opto-pomalidomide, dBET1, opto-dBET1, dALK and opto-dALK were dissolved in DMSO and diluted to indicated concentration, followed by UVA irradiation for indicated duration of time. Then the samples were subjected to UV-Vis spectrometry analysis. Pomalidomide and opto-pomalidomide mixture solutions were made with the indicated ratio. Absorption values at 364 nm were measured to draw standard curve. dBET1 and opto-dBET1 mixture solution were made with the indicated ratios. Absorption values at 340 nm were measured to draw standard curve. dALK and opto-dALK mixture solution were made with indicated ratio. Absorption values at 370 nm were measured to draw standard curve."}, "CRBN and IKZF1": {"target": "T1, CRBN and IKZF1 (Homo sapiens, UniProt Q13422+Q96SW2)", "T1 construct": "expressed in transfected cells; host or cells: HEK293T", "T1 sequence (Q96SW2 whole entry)": "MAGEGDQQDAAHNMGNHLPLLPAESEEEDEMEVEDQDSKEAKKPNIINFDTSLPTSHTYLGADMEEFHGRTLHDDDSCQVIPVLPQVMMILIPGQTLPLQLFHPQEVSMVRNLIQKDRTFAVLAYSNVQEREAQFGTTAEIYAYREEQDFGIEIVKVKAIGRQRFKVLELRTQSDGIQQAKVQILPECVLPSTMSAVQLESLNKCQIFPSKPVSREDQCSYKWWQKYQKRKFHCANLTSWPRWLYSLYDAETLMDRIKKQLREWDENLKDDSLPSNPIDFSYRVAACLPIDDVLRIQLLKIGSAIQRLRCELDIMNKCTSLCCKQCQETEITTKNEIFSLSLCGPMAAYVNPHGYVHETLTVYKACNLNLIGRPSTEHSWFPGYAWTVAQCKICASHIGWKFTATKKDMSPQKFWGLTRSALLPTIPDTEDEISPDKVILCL", "T1 sequence (Q13422 whole entry)": "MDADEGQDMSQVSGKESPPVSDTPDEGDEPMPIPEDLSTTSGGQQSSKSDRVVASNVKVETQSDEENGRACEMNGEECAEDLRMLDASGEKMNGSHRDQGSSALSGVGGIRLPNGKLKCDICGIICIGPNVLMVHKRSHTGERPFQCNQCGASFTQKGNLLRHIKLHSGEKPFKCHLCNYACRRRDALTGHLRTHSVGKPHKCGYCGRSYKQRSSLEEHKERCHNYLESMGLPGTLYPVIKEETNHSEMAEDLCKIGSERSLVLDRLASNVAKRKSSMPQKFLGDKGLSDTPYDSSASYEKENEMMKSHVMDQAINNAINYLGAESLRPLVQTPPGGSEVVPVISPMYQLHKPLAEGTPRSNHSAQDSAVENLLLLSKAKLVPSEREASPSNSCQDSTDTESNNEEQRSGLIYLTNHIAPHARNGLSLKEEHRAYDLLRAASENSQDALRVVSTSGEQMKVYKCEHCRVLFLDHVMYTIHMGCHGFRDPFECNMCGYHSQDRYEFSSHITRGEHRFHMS", "T1 sequence (Q16531 whole entry partner)": "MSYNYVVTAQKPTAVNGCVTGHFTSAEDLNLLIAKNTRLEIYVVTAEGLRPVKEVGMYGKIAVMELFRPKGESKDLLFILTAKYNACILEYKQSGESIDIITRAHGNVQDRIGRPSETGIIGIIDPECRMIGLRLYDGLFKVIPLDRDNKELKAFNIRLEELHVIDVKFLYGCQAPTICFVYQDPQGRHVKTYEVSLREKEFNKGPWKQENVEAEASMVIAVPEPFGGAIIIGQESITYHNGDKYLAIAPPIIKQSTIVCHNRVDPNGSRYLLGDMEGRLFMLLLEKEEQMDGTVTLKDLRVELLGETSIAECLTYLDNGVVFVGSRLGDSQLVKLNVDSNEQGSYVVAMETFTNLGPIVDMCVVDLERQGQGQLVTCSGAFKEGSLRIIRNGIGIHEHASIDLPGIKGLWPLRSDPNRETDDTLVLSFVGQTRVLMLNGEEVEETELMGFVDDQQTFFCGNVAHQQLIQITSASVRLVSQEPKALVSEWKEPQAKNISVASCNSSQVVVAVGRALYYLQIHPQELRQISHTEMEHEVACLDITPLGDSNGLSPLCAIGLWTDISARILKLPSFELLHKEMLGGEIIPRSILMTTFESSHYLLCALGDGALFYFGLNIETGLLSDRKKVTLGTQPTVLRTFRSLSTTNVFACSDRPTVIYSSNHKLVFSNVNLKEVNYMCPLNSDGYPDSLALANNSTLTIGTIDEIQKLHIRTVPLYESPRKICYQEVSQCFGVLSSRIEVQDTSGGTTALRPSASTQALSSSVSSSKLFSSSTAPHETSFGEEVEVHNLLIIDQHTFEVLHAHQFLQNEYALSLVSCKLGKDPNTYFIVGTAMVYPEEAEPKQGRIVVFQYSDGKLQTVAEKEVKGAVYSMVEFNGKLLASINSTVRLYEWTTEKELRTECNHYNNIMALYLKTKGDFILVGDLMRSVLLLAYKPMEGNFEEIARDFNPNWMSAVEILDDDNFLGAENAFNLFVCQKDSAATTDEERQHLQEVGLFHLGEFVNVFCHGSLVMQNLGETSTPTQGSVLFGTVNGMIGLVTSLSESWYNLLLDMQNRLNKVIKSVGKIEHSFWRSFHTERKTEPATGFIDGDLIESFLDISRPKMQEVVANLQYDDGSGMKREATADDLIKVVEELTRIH", "assay": "CRBN-IKZF1 interaction, Flag-IP and immunoblot in HEK293T cells", "assay_type": "cell-based", "conditions": "without UVA irradiation, 10 μM MG132 12 hours", "method": "(§6) MM.1S, MT2, C4-2, NCI-H2228 and NCI-H3122 cells were cultured in RPMI1640 containing 10% fetal bovine serum (FBS), 100 Units of penicillin and 100 μg/ml streptomycin. […] For UVA irradiation, cells were pretreated with opto-PROTACs for 2-4 hours, and then subjected to UVA irradiation for indicated durations.\nas §3"}, "MM1S cells": {"test_system": "MM1S cells", "assay": "CCK-8 cell viability assay, MM1S cells", "assay_type": "cell-based", "conditions": "MM1S-CRBN+/+ and MM1S-CRBN−/− cells, 72 hours, without UVA irradiation", "method": "as §1, §2"}, "IKZF1": {"target": "IKZF1 (Homo sapiens, UniProt Q13422+Q96SW2)", "sequence (Q13422 whole entry)": "as the sequence (Q13422 whole entry) above", "sequence (Q96SW2 whole entry)": "as the sequence (Q96SW2 whole entry) above", "sequence (Q16531 whole entry partner)": "as the sequence (Q16531 whole entry partner) above", "assay": "In vivo ubiquitination assay of IKZF1 by CRBN in HEK293T cells (Ni-NTA pull down)", "assay_type": "cell-based", "design": "expressed in transfected cells; host or cells: HEK293T", "conditions": "without UVA irradiation", "method": "as §4, with “Briefly,” for “Denatured in vivo ubiquitination assays were performed as described in H. Inuzuka et al., Cell 150 (2012): 179, hereby incorporated by reference in its entirety and specifically in relation to ubiquitination assays. Briefly,”"}, "[2]": {"assay": "UV-VIS absorption spectrum", "assay_type": "physicochemical", "conditions": "in DMSO", "method": "as §5"}, "IKZF1/3": {"test_system": "IKZF1/3", "assay": "IKZF1/3 degradation, immunoblot of MM1S cells", "assay_type": "cell-based", "conditions": "MM1S-CRBN+/+ vs. MM1S-CRBN−/− cells, 12 hours, without UVA irradiation; opto-drug up to 10-fold excess", "method": "as §6, §3"}, "[3]": {"conditions": "HEK293FT (293FT-CRBN+/+ and CRBN−/−) cells, without UVA irradiation"}, "[4]": {"conditions": "293FT-CRBN+/+ vs. 293FT-CRBN−/− cells, 12 hours, without UVA irradiation"}, "[5]": {"conditions": "72 hours, without UVA irradiation"}, "[6]": {"conditions": "UVA irradiation (365 nm) 15 minutes"}},
  "note": "“Also recorded” adds a separate entry of the source.",
  "data": [
    {"smiles": "Cc1sc2c(c1C)C(c1ccc(Cl)cc1)=N[C@@H](CC(=O)NCCCCNC(=O)COc1cccc3c1C(=O)N(C1CCC(=O)NC1=O)C3=O)c1nnc(C)n1-2", "note": "(some centres unmarked) [dBET1, reference compound]", "values": [
      {"measurement": "cell proliferation (CCK-8)", "setting": "HEK293FT cells; [3]", "value": "inhibited cell proliferation in a dose-dependent manner; also recorded: inhibits cell proliferation in 293FT-CRBN^+/+ but not 293FT-CRBN^−/− cells"},
      {"measurement": "cell proliferation (CCK-8)", "setting": "C4-2 cells; without UVA irradiation", "value": "inhibited cell proliferation in a dose-dependent manner"},
      {"measurement": "degradation of BRD3/4", "setting": "BRD3/4; [4]", "value": "degraded BRD 3/4 in a CRBN-dependent manner"},
      {"measurement": "ubiquitination of BRD2 and BRD3 by CRBN", "setting": "BRD2 and BRD3; without UVA irradiation", "value": "function as a molecular linker between a protein targeting moiety that recruits bromodomain family members (BRD2/3) (JQ1 derived) and CRBN-mediated ubiquitination"}
    ]},
    {"smiles": "COc1cc(COC(=O)N2C(=O)CCC(N3C(=O)c4cccc(NCCNC(=O)CN5CCC(c6cc(OC(C)C)c(Nc7ncc(Cl)c(Nc8ccccc8S(=O)(=O)C(C)C)n7)cc6C)CC5)c4C3=O)C2=O)c([N+](=O)[O-])cc1OC", "note": "(centres unmarked) [opto-dALK]", "values": [
      {"measurement": "cell proliferation (CCK-8)", "setting": "NCI-H2228 cells; [5]", "value": "inefficient in inhibiting the proliferation of H2228 (C) or NCI-3122 (D)"},
      {"measurement": "cell proliferation (CCK-8)", "setting": "NCI-H2228 cells; [6]", "value": "required prior uncaging by UVA irradiation; also recorded: inhibits H2228 (E) or NCI-3122 (F) cell proliferation in a dose-dependent manner"},
      {"measurement": "cell proliferation (CCK-8)", "setting": "NCI-H3122 cells; [5]", "value": "inefficient in inhibiting the proliferation of H2228 (C) or NCI-3122 (D)"},
      {"measurement": "cell proliferation (CCK-8)", "setting": "NCI-H3122 cells; [6]", "value": "required prior uncaging by UVA irradiation; also recorded: inhibits H2228 (E) or NCI-3122 (F) cell proliferation in a dose-dependent manner"},
      {"measurement": "uncaging (photolysis) by UVA irradiation in vitro", "setting": "[1]", "value": "efficiently uncaged by UVA irradiation in vitro"}
    ]},
    {"smiles": "COc1cc(COC(=O)N2C(=O)CCC(N3C(=O)c4cccc(OCC(=O)NCCCCNC(=O)C[C@@H]5N=C(c6ccc(Cl)cc6)c6c(sc(C)c6C)-n6c(C)nnc65)c4C3=O)C2=O)c([N+](=O)[O-])cc1OC", "note": "(some centres unmarked) [opto-dBET1]", "values": [
      {"measurement": "cell proliferation (CCK-8)", "setting": "HEK293FT cells; [3]", "value": "relatively less toxic; also recorded: did not inhibit cell proliferation in 293FT-CRBN^+/+ and 293FT-CRBN^−/− cells"},
      {"measurement": "cell proliferation (CCK-8)", "setting": "HEK293FT cells; HEK293FT cells, UVA irradiation (365 nm) 15 minutes", "value": "could be activated by UVA irradiation to suppress cell proliferation; also recorded: inhibits HEK293FT (J) and C4-2 (K) cell proliferation in a dose-dependent manner"},
      {"measurement": "cell proliferation (CCK-8)", "setting": "C4-2 cells; [6]", "value": "could be activated by UVA irradiation to suppress cell proliferation; also recorded: inhibits HEK293FT (J) and C4-2 (K) cell proliferation in a dose-dependent manner"},
      {"measurement": "cell proliferation (CCK-8)", "setting": "C4-2 cells; without UVA irradiation", "value": "relatively less toxic"},
      {"measurement": "uncaging (photolysis) by UVA irradiation in vitro", "setting": "[1]", "value": "efficiently uncaged by UVA irradiation in vitro"},
      {"measurement": "degradation of BRD3/4", "setting": "BRD3/4; [4]", "value": "largely inert and incapable of degrading BRD3/4"},
      {"measurement": "degradation of BRD3/4", "setting": "BRD3/4; HEK293FT cells, UVA irradiation (365 nm) 5 or 15 minutes", "value": "leading to the degradation of BRD3/4"},
      {"measurement": "ubiquitination of BRD2 and BRD3 by CRBN", "setting": "BRD2 and BRD3; UVA irradiation (365 nm) 15 min", "value": "regained its ability to promote ubiquitination of BRDs in cells"},
      {"measurement": "ubiquitination of BRD2 and BRD3 by CRBN", "setting": "BRD2 and BRD3; without UVA irradiation", "value": "incapable of guiding the ubiquitination of BRD2 and BRD3"}
    ]},
    {"smiles": "Nc1cccc2c1C(=O)N(C1CCC(=O)NC1=O)C2=O", "note": "(centres unmarked) [pomalidomide, reference compound]", "values": [
      {"measurement": "interaction between CRBN and IKZF1", "setting": "CRBN and IKZF1", "value": "bound both CRBN and IKZF1/3"},
      {"measurement": "cell proliferation (CCK-8)", "setting": "MM1S cells", "value": "reduces MM1S cell proliferation in a CRBN-dependent manner"},
      {"measurement": "ubiquitination of IKZF1 by CRBN", "setting": "IKZF1", "value": "subsequently transfer the ubiquitin chain onto the target proteins, IKZFs"},
      {"measurement": "maximum in absorption of UV-VIS absorption spectrum", "setting": "[2]", "value": 390, "unit": "nm"},
      {"measurement": "degradation of IKZF1/3", "setting": "IKZF1/3", "value": "induced IKZF1/3 degradation in a CRBN-dependent manner"}
    ]}
  ]
}
